Reference: patent publication US10004711B2, “Methods and compositions comprising 10-hydroxy-2-decenoic acid” (DSM IP ASSETS B.V., priority 2014, dated 2018)

Legend:
[1] = test system: Neurons from the brain's hippocampus; experiment: Glutamate toxicity, cell death (propidium iodide); type: cell-based, rat; conditions: for Cell Death (% Control): glutamate 25 μM 24 h
Experimental: (§1) Neurons from the brain's hippocampus were derived from E17 pups and incubated for 7 days. The cells were pre-treated with QBA for 48 hours and subsequently challenged with glutamate (25 μM) for 24 hours. The cultures were then stained with propidium iodide, a marker of cell death, and with tetramethylrhodamine ethyl ester (TMRE), a marker for mitochondrial health. The fluorescence of each of these markers was then quantitated with a fluorimeter.

[2] = test system: older rats; experiment: Open field test, older rats fed QBA; type: in vivo, rat; conditions: for Center Entries (#): rats 15 months old, thirty minutes
Experimental: (§2) The dose-response characteristics of 10-Hydroxy-2-decenoic acid's (QBA's) potential brain health benefits during aging were assessed for mood in older rats (18-20 months old).
In the open field test each rat was placed in a novel environment consisting of an arena measuring 100×100×40 cm. Rats were placed in the middle of the chamber and behavior in the open field was recorded for thirty minutes with a digital camera and measured by software. More time spent in the center of the area is an indication of a reduced anxiety-like state. Rats were tested at 15 months old (N=11-12 per group).

[3] = Weight after Barnes maze psychological stress (Example 9); type: in vivo, rat
Experimental: Aged male rats were fed 10-Hydroxy-2-decenoic acid (QBA) for approximately […] from 12-months to 20-months of age and the weight of rats was recorded (N=11-14 per group). During the last month of QBA feeding animals were subjected to the psychological stress of the Barnes maze.

[4] = test system: Neurons from the brain's hippocampus; experiment: In vitro neurite extension (Map2a staining per neuron); type: cell-based, rat; conditions: for % Map2a Staining/Neuron: 7 days incubation
Experimental: Neurons from the brain's hippocampus were derived from embryonic day (E17) rat pups and incubated with QBA for 7 days. The cultures were then stained with neuron-specific marker, microtubule associated protein-2a (Map2a) and cell nuclei were stained with 4′,6-diamidino-2-phenylindole (DAPI). Fluorescent images of the staining were then captured with a confocal microscope. The staining was quantitated by dividing the percent area of the Map2a staining by the number of neurons.

[5] = Weight management in mice, colitis-related disease state (cell transfer insult); type: in vivo, mouse; conditions: for % Original Wt: Diseased + QBA 60 mg/kg body weight/day
Experimental: Mice (45 days of age) were fed 60 mg/kg body weight/day QBA (equivalent to 24 mg/kg/d in rats; HED of ˜240 mg/day, N=10) or a control diet (N=15) for 28 days. […] After 28 days, all 10 of the mice fed QBA and 10 of the 15 control mice were subjected to a cell transfer insult wherein the mice were considered to be in a colitis-related disease state. The undiseased controls (N=5) and the diseased controls (N=10) continued on their control diets, and the diseased QBA-fed animals continued on their QBA diets (60 mg/kg body weight/day QBA), for an additional 49 days.

[6] = test system: Human peripheral blood mononuclear cells (PBMC); experiment: Proliferation of PBMC after αCD3/CD28 stimulation; type: cell-based; conditions: for Cell Numbers: 72 h
Experimental: Human peripheral blood mononuclear cells (PBMC) were pre-treated with 10-Hydroxy-2-decenoic acid (QBA) for 1 hour prior to stimulation with αCD3/CD28. After 72 hours of incubation, cell number was assessed by Cell Titer Glow.

[7] = test system: Neurons from the brain's hippocampus; experiment: Glutamate toxicity, mitochondrial health (TMRE); type: cell-based, rat; conditions: for Mitochondrial Health (% Control): glutamate 25 μM 24 h
Experimental: as §1

[8] = test system: older rats; experiment: Elevated plus-maze, older rats fed QBA; type: in vivo, rat; conditions: for Time (s) in Open Arm: rats 18 months old, 5-min test
Experimental: as §2
Rats were fed QBA and subjected to an elevated plus-maze. The elevated plus-maze was elevated ˜85 cm above the floor and consisted of two open and two closed arms of the same size (50×10 cm). The closed arms were surrounded by walls 40 cm high, and the arms were constructed of black acrylic slabs that radiated from a central platform (10×10 cm) to form a plus sign. Each rat was placed in the central platform facing one of the open arms, and its behavior was recorded during a 5-min testing period with video capture software. More time spent in the open arms is an indication of reduced anxiety-like state. Rats were tested at 18 months old (N=11-13 per group).

[9] = Townsend et al. 1960; Izuta et al. 2009; cited from earlier work
[10] = QBA 10.00 μM pre-treatment 48 h
[11] = QBA 30.00 μM pre-treatment 48 h
[12] = QBA 100.00 μM pre-treatment 48 h
[13] = QBA 24 mg/kg/d, 15-18-month old male rats

O=C(O)C=CCCCCCCCO [QBA, 10-Hydroxy-2-decenoic acid]
Cell Death (% Control) ([1]; QBA 0.10 μM pre-treatment 48 h): 92.52 % Control
Cell Death (% Control) ([1]; QBA 0.30 μM pre-treatment 48 h): 90.43 % Control
Cell Death (% Control) ([1]; QBA 1.00 μM pre-treatment 48 h): 88.78 % Control
Cell Death (% Control) ([1]; QBA 3.00 μM pre-treatment 48 h): 94.07 % Control
Cell Death (% Control) [1, 10]: 92.78 % Control
Cell Death (% Control) [1, 11]: 90.69 % Control
Cell Death (% Control) [1, 12]: 91.76 % Control
cell death after glutamate toxicity ([1]; summary of Table 2): decreased cell death
Center Entries (#) ([2]; QBA 0.4 mg/kg/day): 1.82 #
Center Entries (#) ([2]; QBA 4 mg/kg/day): 2.50 #
Center Entries (#) ([2]; QBA 12 mg/kg/day): 1.82 #
anxiety as measured by the number of center entries in the open field arena [2, 13]: decreased anxiety
Center Entries (#) ([2]; QBA 24 mg/kg/day): 3.75 #
% Change (Weight after Barnes maze) ([3]; QBA 12 mg/kg/day, behavior stress day 7): −0.15%
% Change (Weight after Barnes maze) ([3]; QBA 12 mg/kg/day, behavior stress day 14): −0.20%
% Change (Weight after Barnes maze) ([3]; QBA 12 mg/kg/day, behavior stress day 21): 0.56%
% Change (Weight after Barnes maze) ([3]; QBA 12 mg/kg/day, behavior stress day 28): 0.63%
% Change (Weight after Barnes maze) ([3]; QBA 12 mg/kg/day, behavior stress day 35): 0.87%
% Change (Weight after Barnes maze) ([3]; QBA 24 mg/kg/day, behavior stress day 7): −0.15%
% Change (Weight after Barnes maze) ([3]; QBA 24 mg/kg/day, behavior stress day 14): 0.02%
% Change (Weight after Barnes maze) ([3]; QBA 24 mg/kg/day, behavior stress day 21): 0.54%
% Change (Weight after Barnes maze) ([3]; QBA 24 mg/kg/day, behavior stress day 28): 0.74%
% Change (Weight after Barnes maze) ([3]; QBA 24 mg/kg/day, behavior stress day 35): 1.32%
weight change versus control, repeated measures ANOVA ([3]; all doses versus 0 mg/kg/day QBA or 0 mg/kg/day QBA+0.07% DHA): small but significant increase
weight loss associated with the psychological stress ([3]; summary of Table 15): mitigated weight loss
% Map2a Staining/Neuron ([4]; QBA 0.10 μM): 0.29%
% Map2a Staining/Neuron ([4]; QBA 0.30 μM): 0.32%
% Map2a Staining/Neuron ([4]; QBA 1.00 μM): 0.30%
% Map2a Staining/Neuron ([4]; QBA 3.00 μM): 0.31%
% Map2a Staining/Neuron ([4]; QBA 10.00 μM): 0.32%
% Map2a Staining/Neuron ([4]; QBA 30.00 μM): 0.32%
% Map2a Staining/Neuron ([4]; QBA 100.00 μM): 0.27%
growth of brain cells in culture ([4]; summary of Table 1): increased the growth of brain cells in culture
% Original Wt ([5]; day 0): 0.00%
% Original Wt ([5]; day 3): 1.93%
% Original Wt ([5]; day 7): 5.33%
% Original Wt ([5]; day 10): 9.91%
% Original Wt ([5]; day 14): 9.09%
% Original Wt ([5]; day 17): 9.10%
% Original Wt ([5]; day 21): 12.60%
% Original Wt ([5]; day 24): 15.47%
% Original Wt ([5]; day 28* (cell transfer insult after 28 days)): 16.19%
% Original Wt ([5]; day 31): 18.82%
% Original Wt ([5]; day 35): 20.65%
% Original Wt ([5]; day 38): 19.66%
% Original Wt ([5]; day 42): 21.27%
% Original Wt ([5]; day 45): 22.86%
% Original Wt ([5]; day 49): 24.04%
% Original Wt ([5]; day 52): 24.05%
% Original Wt ([5]; day 56): 22.29%
% Original Wt ([5]; day 59): 21.83%
% Original Wt ([5]; day 63): 23.89%
% Original Wt ([5]; day 66): 22.42%
% Original Wt ([5]; day 70): 22.95%
% Original Wt ([5]; day 73): 21.96%
% Original Wt ([5]; day 77): 20.56%
weight of mice in a diseased state versus undiseased controls ([5]; QBA 60 mg/kg body weight/day, colitis-related disease state): maintained their weight similar to the undiseased control mice
percentage increase in body weight versus control diet ([5]; QBA 60 mg/kg body weight/day, first 28 days, before insult): greater percentage increase in body weight
Cell Numbers ([6]; QBA 50 μM 1 h before αCD3/CD28): 517020
Cell Numbers ([6]; QBA 100 μM 1 h before αCD3/CD28): 472678
Cell Numbers ([6]; QBA 500 μM 1 h before αCD3/CD28): 442008
Cell Numbers ([6]; QBA 1000 μM 1 h before αCD3/CD28): 344026
Cell Numbers ([6]; QBA 2500 μM 1 h before αCD3/CD28): 104291
Cell Numbers ([6]; QBA 5000 μM 1 h before αCD3/CD28): 1601
concentrations that reduced the proliferation of human immune cells ([6]; summary of Table 11): greater than 500 μM
Mitochondrial Health (% Control) ([7]; QBA 0.10 μM pre-treatment 48 h): 101.94 % Control
Mitochondrial Health (% Control) ([7]; QBA 0.30 μM pre-treatment 48 h): 112.27 % Control
Mitochondrial Health (% Control) ([7]; QBA 1.00 μM pre-treatment 48 h): 110.50 % Control
Mitochondrial Health (% Control) ([7]; QBA 3.00 μM pre-treatment 48 h): 106.39 % Control
Mitochondrial Health (% Control) [7, 10]: 111.02 % Control
Mitochondrial Health (% Control) [7, 11]: 114.72 % Control
Mitochondrial Health (% Control) [7, 12]: 123.80 % Control
cell health after glutamate toxicity ([7]; summary of Table 3): increased cell health
Time (s) in Open Arm ([8]; QBA 0.4 mg/kg/day): 48.5 s
Time (s) in Open Arm ([8]; QBA 4 mg/kg/day): 52.2 s
Time (s) in Open Arm ([8]; QBA 12 mg/kg/day): 37.1 s
anxiety as measured by the time in the open arms of the elevated plus maze [8, 13]: decreased anxiety
Time (s) in Open Arm ([8]; QBA 24 mg/kg/day): 69.8 s
in vitro antitumor activity [9]: antitumor activity
